Laboratory results reported in patent US9751851B2, “Molecules and compositions that inhibit gram negative bacteria and their uses” (THE TRUSTEES OF PRINCETON UNIVERSITY, priority 2013, dated 2017).
Entries after “also recorded” stand apart in the source; their conditions may differ.

Columns and labels:
[1] = tested on: wild-type P. aeruginosa PA14; experiment: microbe, parasite or virus in culture; type: cell-based; conditions: for inhibition of pyocyanin production (in words): wild-type P. aeruginosa PA14, end point assays at 100 μM; for Efficacy (%): Table 3, reduction of pyocyanin vs WT P. aeruginosa PA14: 0% = WT level, 100% = background medium
Experimental: (§1) Methods. The oxidized form of pyocyanin imparts a green color to P. aeruginosa cultures, making the production of pyocyanin convenient to monitor by UV/Vis absorbance. Overnight P. aeruginosa cultures were subcultured into 5 mL fresh medium at 1:1000 dilution. Synthetic compounds were assayed at 100 μM for end point assays and at concentrations ranging from 200 nM to 200 μM for titrations following 17 hr of aerobic growth with shaking at 37° C. Cells were separated from culture fluids via centrifugation at 13,000 rpm for 15 min. Culture fluids were passed through 0.22 μm syringe driven filters (Millipore). Cell-free culture fluids were analyzed for pyocyanin using wavelength scans on a Beckman Coulter DU-800 spectrophotometer from 200 nm to 800 nm 695 nm was chosen for graphical representation. Titration data were fit with a variable-slope sigmoidal dose-response curve using GraphPad Prism to determine the IC50 values.
The compounds of the first library were assayed in wild-type (WT) P. aeruginosa PA14. Pyocyanin was used as a read-out for quorum sensing activity based on its absorbance at 695 nm. The efficacy of the compounds at reducing pyocyanin levels was calculated with respect to WT levels of pyocyanin, where WT levels of pyocyanin would lead to a 0% efficacy, and an absorbance equal to the background medium would lead to a 100% efficacy. Agonists that increase pyocyanin production have negative efficacy values.

LasR = target: T1, LasR (Pseudomonas aeruginosa, UniProt P25084); experiment: LasR-GFP assay (rsaL-gfp reporter in recombinant E. coli); type: cell-based, P. aeruginosa
T1 construct: expressed in transfected cells; host or cells: E. coli BL21-Gold (DE3) carrying pET23b-lasR
Experimental: (§2) Methods. The LasR-GFP assays were performed in E. coli strain BL21 DE3 Gold (Agilent) carrying pET23b (Novagen) containing lasR (maintained with 100 μg/mL ampicillin) and carrying plasmid pEVS141 (31) containing the rsaL promoter driving expression of gfp (maintained with […] of kanamycin.) The RhlR-GFP assays were performed in E. coli strain BL21 DE3 Gold (Agilent) carrying pET23b (Novagen) containing rhlR (maintained with 100 μg/mL ampicillin) and carrying plasmid pEVS141 containing the rhlA promoter driving expression of gfp (maintained with 50 μg/mL of kanamycin.) These E. coli strains were grown overnight and subcultured into fresh medium with appropriate antibiotics at a 1:100 dilution and grown shaking for 8 hr at 37° C. for the LasR-GFP strain and 12 hr for the RhlR-GFP construct. 50 nM 3OC12-HSL or 20 μM C4-HSL was added to the LasR-GFP and RhlR-GFP preparations, respectively. Compounds were tested at 1 mM for antagonism and at 100 nM or 20 μM for agonism. These concentrations were chosen for agonism studies to match the concentrations of autoinducers used in the experiments. For antagonism studies, the EC95 concentration was used for each receptor. GFP was measured on an Envision plate reader.
(§3) The LasR-GFP assays were performed in E. coli strain BL21 DE3 Gold (Agilent) carrying pET23b (Novagen) containing lasR (maintained with 100 μg/mL ampicillin) and carrying plasmid pEVS141 (31) containing the rsaL promoter driving expression of gfp (maintained with 50 μg/mL of kanamycin.) The RhlR-GFP assays were performed in E. coli strain BL21 DE3 Gold (Agilent) carrying pET23b (Novagen) containing rhlR (maintained with 100 μg/mL ampicillin) and carrying plasmid pEVS141 (31) containing the rhlA promoter driving expression of gfp (maintained with 50 μg/mL of kanamycin.) These E. coli strains were grown overnight and subcultured into fresh medium with appropriate antibiotics at a 1:100 dilution and grown shaking for 8 hr at 37° C. for the LasR-GFP strain and 12 hr for the RhlR-GFP construct. 50 nM 3OC12-HSL or 20 μM C4-HSL was added to the LasR-GFP and RhlR-GFP preparations, respectively. Compounds were tested at 1 mM for antagonism and at 100 nM or 20 μM for agonism. These concentrations were chosen for agonism studies to match the concentrations of autoinducers used in our experiments. For antagonism studies, we used the EC95 concentration for each receptor. GFP was measured on an Envision plate reader.

RhlR = target: T2, RhlR (Pseudomonas aeruginosa, UniProt P54292); experiment: RhlR-GFP assay (rhlA-gfp reporter in recombinant E. coli); type: cell-based, P. aeruginosa
T2 construct: expressed in transfected cells; host or cells: E. coli BL21-Gold (DE3) carrying pET23b-rhlR
Experimental: as §2, §3

[2] = tested on: A549 human lung cells infected with P. aeruginosa PA14; experiment: A549 human lung cell infection (propidium iodide uptake); type: cell-based; conditions: wild-type and lasR mutant strains; 100 μM compound
Experimental: Methods. Human A549 cells were grown in CellStar tissue culture flasks. Prior to infection, the A549 cells were treated with trypsin-EDTA (CellGro), split, counted, and aliquotted into 96 well plates at 20,000 mammalian cells/well (cell counts were estimated using Trypan Blue (CellGro) exclusion). Cells were grown for 20 hr at 37° C. in DMEM (Invitrogen). Cells were washed 3× with warm PBS (Gibco). 100 μL of “master mix” was added to each well for each condition. Master mix contained 1 mL pre-warmed-PBS, 5 μL of 2 mg/mL propidium iodide (Bioprobes), 1 μL of a 100 mM inhibitor stock or DMSO, and 10 μL of OD600=2 P. aeruginosa PA14 grown in the presence of mBTL or DMSO. Infections were monitored using an EnVision plate reader every 2 hr with the RFP filter supplied by GE.

[3] = tested on: wild-type P. aeruginosa PA14; experiment: Microarray gene expression analysis, wild-type strain; type: cell-based; conditions: WT P. aeruginosa PA14, 100 μM
Experimental: Methods. Overnight P. aeruginosa PA14 cultures were back-diluted 1:1000 into 5 mL of fresh LB. 100 μM mBTL, or an equivalent amount of DMSO, was added to cultures which were grown aerobically with shaking at 37° C. for 17 hr. 9 ODs of cells were harvested for each treatment. Lysozyme (1 mg/mL in TE buffer) (Sigma) was added for 10 min at room temperature. Total RNA was prepared using the RNeasy Midi Kit (Qiagen). RNA was treated with RNase-Free DNaseI (Ambion) for 1 hr at 37° C., inactivated using DNaseI Inactivation Reagent Resin (Ambion), and re-purified using the RNeasy Mini Kit. […] The library was purified using the PCR Purification kit (Qiagen) and assessed for Cy3 and Cy5 incorporation using a Nanodrop ND-1000 Spectrophotometer (Nanodrop Technologies). […] Microarrays were scanned using an Agilent G2505C scanner and analyzed using Agilent Feature Extract software version 9.5. Resulting microarray intensity data were submitted to the PUMA Database (http://puma.princeton.edu) for archiving and analyzed using Matlab R2013a.
Overnight P. aeruginosa PA14 cultures were back-diluted 1:1000 into 5 mL of fresh LB. […] The library was purified using the PCR Purification kit (Qiagen) and assessed for Cy3 and Cy5 incorporation using a Nanodrop ND-1000 Spectrophotometer (Nanodrop Technologies). […]

[4] = tested on: ΔlasRrhlR strain of P. aeruginosa; experiment: Pyocyanin production in mutant lacking LasR and RhlR; type: cell-based; conditions: treated vs DMSO
Experimental: as §1
The compounds were designed to be AHL analogs that bind and antagonize LasR and/or RhlR. If either receptor were the target, a ΔlasRrhlR strain of P. aeruginosa would not be expected to have a further reduction of pyocyanin when treated with an inhibitor.

T2 sequence (P54292 whole entry): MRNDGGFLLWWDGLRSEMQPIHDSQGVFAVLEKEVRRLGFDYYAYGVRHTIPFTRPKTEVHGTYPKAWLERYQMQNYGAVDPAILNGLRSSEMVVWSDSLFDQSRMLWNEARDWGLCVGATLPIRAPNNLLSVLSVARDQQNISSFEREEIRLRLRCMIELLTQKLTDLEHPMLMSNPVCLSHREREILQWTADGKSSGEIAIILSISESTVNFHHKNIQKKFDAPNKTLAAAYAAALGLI
T1 sequence (P25084 whole entry): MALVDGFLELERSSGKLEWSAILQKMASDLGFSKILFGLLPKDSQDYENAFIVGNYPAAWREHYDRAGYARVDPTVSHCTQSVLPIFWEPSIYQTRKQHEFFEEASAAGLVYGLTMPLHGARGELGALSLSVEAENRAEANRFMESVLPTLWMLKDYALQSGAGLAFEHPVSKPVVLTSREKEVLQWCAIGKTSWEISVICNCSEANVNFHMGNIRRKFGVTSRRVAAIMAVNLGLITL

Compound	inhibition of pyocyanin production (in words) [1]	LasR agonism (in words) (LasR; 100 nM, no autoinducer)	inhibition of LasR-directed transcription in E. coli (in words) (LasR; tested at 1 mM with 3OC12-HSL)	RhlR agonism (in words) (RhlR; 20 μM, no autoinducer)	inhibition of RhlR-directed transcription in E. coli (in words) (RhlR; tested at 1 mM with C4-HSL)	killing of A549 cells by P. aeruginosa [2]	Efficacy (%) ([1]; listed as Table 3 entry 18)	Efficacy (%) ([1]; listed as drawing 76)	effect on pyocyanin biosynthetic genes (microarray) [3]	pyocyanin levels in strain lacking LasR and RhlR [4]
chlorolactone [CL]	Neither CL nor CTL inhibited pyocyanin production; also recorded: no in vivo inhibition of pyocyanin production	does not agonize either receptor	more potent inhibitor of both LasR- and RhlR-directed transcription in E. coli than is mBTL; also recorded: inhibits LasR- and RhlR-controlled transcription	does not agonize either receptor	more potent inhibitor of both LasR- and RhlR-directed transcription in E. coli than is mBTL; also recorded: inhibits LasR- and RhlR-controlled transcription	does not attenuate killing of A549 lung cells				
O=C(COc1cccc(Br)c1)Nc1ccnc(C(F)(F)F)c1 [compound 16, 4-amino-2-trifluoromethylpyridine-C6-3-bromophenoxyhybrid]	highly effective at blocking pyocyanin production						99%	99 ± 0.3%	none of the pyocyanin biosynthetic genes are impacted	pyocyanin levels are further reduced
